The source of these data is patent US12264175B2, “Compositions and methods for capping RNAS” (Verve Therapeutics, Inc., priority 2020, dated 2025).

The target in one data set is T7 RNA polymerase (Escherichia phage T7, UniProt P00573). The data set can be described thus: One-pot IVT preparation of 5′ capped mRNA (production yield, full-length purity). The class given is biochemical. An excerpt: The 5′ end initiator, 1007a, (FIG. 1A) was used to prepare capped mRNAs that encode for ABE and luciferase proteins. In this Example and for all others described herein, the ABE mRNA sequence was MA004 (SEQ. 0001) and the luciferase mRNA sequence was the Photinus pyralis (Firefly) luciferase sequence described in NCBI reference sequence XM_031473197.1. These mRNA can be produced by different methods well known in the art. One of such methods used herein was in vitro transcription (IVT) using T7 polymerase; or in other embodiments, additional RNA polymerase variants. This IVT reaction to produce mRNA used a linearized DNA template that comprised a T7 polymerase promoter and associated regulatory sequences, mRNA coding sequence (CDS), 3′ and 5′ untranslated regions (UTRs), poly A tail, and additional sequence elements to facilitate and modulate mRNA stability and in vivo performance. Prior to IVT, the DNA template was in the form of a plasmid; in other embodiments the DNA template is in the form of a PCR product, synthetic DNA product, or any other double-stranded DNA construct. Linearization of the DNA template with a restriction digestion enzyme was performed in order to promote run-off transcription. The typical IVT reaction included T7 polymerase, DNA template, RNase inhibitor, cap analog, inorganic pyrophosphatase, and the naturally occurring ribonucleoside triphosphates (NTPs) such as GTP, ATP, CTP, and N1-methyl pseudouridine triphosphosphate; in some embodiments NTPs include UTP or modified NTPs such as pseudouridine, 5′methyl cytidine, 5-methoxy uridine, N6-methyl adenosine, and N4-acetyl cytidine. The 1007a 5′ end initiator was added to the IVT reaction along with ATP, GTP, CTP, and N1-methyl pseudouridine triphosphate at a 1:1 initiator-to-NTP molar ratio and additional ratios described in Example 5 (B). Poly A tail was encoded in the DNA template that was added to the mRNA during transcription; in some instances, poly A tail is added to the mRNA after the IVT reaction using an RNA ligase enzyme. Finally, T7 RNA polymerase was added to the mixture and the IVT reaction was run at 37° C. for about 1-4 hours. After IVT, DNase was added to the transcription mixture to remove DNA template; in some instances, residual DNA is removed with chromatography. This mRNA was purified to remove residual reaction products and impurities, and stored in 1 mM citrate buffer. Characterization of production yield and mRNA full-length purity was performed by UV spectrometry and capillary gel electrophoresis methods, which are known in the art. […] Similar IVT and purification process are used to produce mRNA encoding SpCas9, Cas12b, CBE, and other ABEs; in all cases the DNA template, reaction conditions, and purification parameters are optimized for the specific gene of interest.
Chain of T7 RNA polymerase (P00573 whole entry): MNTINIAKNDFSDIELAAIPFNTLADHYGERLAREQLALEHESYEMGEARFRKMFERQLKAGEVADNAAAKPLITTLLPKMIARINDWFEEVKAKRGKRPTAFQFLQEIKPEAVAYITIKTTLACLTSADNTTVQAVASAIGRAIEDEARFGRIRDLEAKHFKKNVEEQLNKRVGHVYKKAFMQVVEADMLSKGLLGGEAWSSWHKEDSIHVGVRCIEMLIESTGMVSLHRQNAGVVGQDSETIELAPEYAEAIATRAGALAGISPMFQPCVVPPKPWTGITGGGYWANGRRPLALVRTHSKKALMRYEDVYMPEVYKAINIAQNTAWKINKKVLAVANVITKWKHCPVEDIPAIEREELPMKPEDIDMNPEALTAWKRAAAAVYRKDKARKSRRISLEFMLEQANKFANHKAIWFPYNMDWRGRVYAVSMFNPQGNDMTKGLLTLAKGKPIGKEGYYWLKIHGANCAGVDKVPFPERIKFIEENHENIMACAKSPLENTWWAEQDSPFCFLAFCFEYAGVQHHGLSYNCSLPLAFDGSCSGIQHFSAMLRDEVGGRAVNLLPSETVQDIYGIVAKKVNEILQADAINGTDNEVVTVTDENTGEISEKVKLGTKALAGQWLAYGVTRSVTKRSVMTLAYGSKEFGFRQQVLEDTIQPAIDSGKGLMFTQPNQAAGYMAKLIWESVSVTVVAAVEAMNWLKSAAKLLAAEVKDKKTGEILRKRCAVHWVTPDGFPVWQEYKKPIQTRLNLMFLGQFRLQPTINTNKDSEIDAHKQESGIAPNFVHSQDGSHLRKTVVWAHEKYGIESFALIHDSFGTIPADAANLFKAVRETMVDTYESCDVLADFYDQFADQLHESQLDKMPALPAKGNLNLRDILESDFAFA
Similarly, ABE encoding mRNA with 5′ end region, 1107a, (FIG. 1B) was produced and characterized as described in the paragraph above.

The subject of another data set is HeLa lysate. The data set is described as follows: Translation of capped luciferase mRNA in HeLa lysate in vitro translation kit. The data set is classed as biochemical. Particulars: luciferase encoding mRNA with the 5′ end motif, luminescence, FIG. 5. The procedure: HeLa cells are cultured in RPMI with 10% FBS at 37° C. under 5% CO2 atmosphere. Cells are plated into an appropriately sized well plate per manufacturer's recommended seeding conditions. After overnight incubation, cells are checked for monolayer formation and then transfected using a transfection agent such as MessengerMAX. Solution A: the desired amount of luciferase mRNA is diluted in OptiMEM and mixed with Solution B: MessengerMAX in OptiMEM. After mixing solutions A and B, the mixture is incubated at room temperature for 20 minutes, and then added dropwise to each well of cells. The cells are then incubated at 37° C. for 12-72 hours to allow for expression of mRNA into protein. Cells are harvested and prepared for measuring luciferase protein levels per Promega luciferase assay system protocol. […] For example, luciferase encoding mRNA with 5′ end region motif, 1007a, was added to a commercially available HeLa lysate in vitro translation kit to produce luciferase protein. Luciferase protein activity as measured by luminescent light production in the presence of a luciferin substrate, was measured with a luminescence-detecting plate reader. Relative light units measured per this assay are proportional to the amount of luciferase protein translated from mRNA. […]

The next data set relates to RIG-I. The data set is described as follows: Immune stimulation of capped mRNA in HEK-Lucia RIG-I cell reporter model. The data set is classed as cell-based. As to the method: LNPs are prepared and administered in vivo to mice as in Example 11(A,B). Blood is collected at appropriate time points, typically at intervals between 1-48 hours post-dose and terminal end point, and processed to serum or plasma per techniques well known in the art. Serum or plasma cytokine and chemokine levels are measured using V-PLEX cytokine and chemokine detection kits. Cytokine and chemokine levels are compared to animals treated with buffer alone as well as pre-dose sampling of the treatment animals. In some instances, the immune stimulation of capped mRNA is assessed after in vitro transfection to reporter cell lines such as HEK-Lucia RIG-I cell reporter model, which produces luciferase signal in the presence of IFN-stimulated response elements such as uncapped mRNA. This cell model is cultured and transfected as described in Example 7, and luciferase activity is measured using a luciferase activity kit and plate reader. It is known in the art that uncapped mRNA produces a RIG-I-dependent IFN immune response, and capped mRNA lessens this immune stimulation. […] The results of this example were compared using mRNA made with a commercially available 5′ end initiator, 1002a, as a reference.

Take `COC1C(OP([O-])(=S)OCC2OC(n3cnc4c(=O)[nH]c(N)nc43)C(O)C2O)C(COP(=O)(O)OP(=O)(O)OP(=O)(O)OCC2OC(n3c[n+](C)c4c(=O)[nH]c(N)nc43)C(O)C2O)OC1n1cnc2c(N)ncnc21` (stereo not drawn) [1007a, m^7G(ppp)Am(ps)G]: the “final production yield of mRNA” value at T7 RNA polymerase (ABE encoding mRNA made with the 5′ end initiator, T7 IVT, FIG. 2) is given as “about 3.3 mg per 1 ml of IVT reaction”. Further, the mRNA full-length purity entry on T7 RNA polymerase (ABE encoding mRNA made with the 5′ end initiator, capillary gel electrophoresis, FIG. 3) is “about 88%”. For the same compound, at T7 RNA polymerase (initiator-to-NTP ratio ranging from 1:1 down to 1:5, FIG. 3), the “amount of full-length mRNA produced” value was “did not reduce”. Besides, the “luciferase activity relative to mRNA with initiator 1002a” value with HeLa lysate is “around 2 x”. For the same compound, in the data set with RIG-I (mRNA with the 5′ end motif, FIG. 8), the “RIG-I activity as compared to uncapped mRNA” value is on record as “reduced”. In addition, the “RIG-I activation as a result of the chemical modifications to the cap structure” value in the data set on RIG-I (reference mRNA made with 1002a) was “did not appear to increase”.
